Measured values as given in publication PMC6540285, “Evaluation of Protein Kinase Inhibitors with PLK4 Cross-Over Potential in a Pre-Clinical Model of Cancer” (International Journal of Molecular Sciences, 2019).

Assays:
[1] = target: RET S891A (Homo sapiens, UniProt P07949, S891A); experiment: SelectScreen kinase profiling, ZLYTE; type: biochemical
[2] = target: DMPK (Homo sapiens, UniProt Q09013); experiment: SelectScreen kinase profiling, LanthaScreen binding
[3] = target: CYP2D6 (Homo sapiens, UniProt P10635)
[4] = target: ERN2 (Homo sapiens, UniProt Q76MJ5); experiment: SelectScreen kinase profiling, LanthaScreen binding; details: ERN2, 10 µM
[5] = target: FGFR2 N549H (Homo sapiens, UniProt P21802, N549H); experiment: SelectScreen kinase profiling, ZLYTE; type: biochemical
[6] = target: PRKCG (PKC gamma) (Homo sapiens, UniProt P05129); experiment: SelectScreen kinase profiling, ZLYTE; type: biochemical
[7] = target: MST4 (Homo sapiens, UniProt Q9P289); experiment: SelectScreen kinase profiling, ZLYTE; type: biochemical; details: MST4, 10 µM
[8] = target: HCK (Homo sapiens, UniProt P08631); experiment: SelectScreen kinase profiling, ZLYTE; type: biochemical
[9] = target: PIK3CG (p110 gamma) (Homo sapiens, UniProt P48736); experiment: SelectScreen kinase profiling, Adapta; type: biochemical
[10] = target: PI4KB (PI4K beta) (Homo sapiens, UniProt Q9UBF8); experiment: SelectScreen kinase profiling, Adapta; type: biochemical
[11] = target: CHEK1 (CHK1) (Homo sapiens, UniProt O14757); experiment: SelectScreen kinase profiling, ZLYTE; type: biochemical
[12] = target: TGFBR2 (Homo sapiens, UniProt P37173); experiment: SelectScreen kinase profiling, LanthaScreen binding; details: TGFBR2, 10 µM
From the text: (§1) Kinase Technology % Inhibition Avg Kinase Technology % Inhibition Avg […]

[13] = target: TEC (Homo sapiens, UniProt P42680); experiment: as above
From the text: as §1

[14] = target: TTK (Homo sapiens, UniProt P33981); experiment: as above
From the text: as §1

[15] = target: WNK3 (Homo sapiens, UniProt Q9BYP7); experiment: as above; details: WNK3, 10 µM
From the text: as §1

[16] = target: TNK2 (ACK) (Homo sapiens, UniProt Q07912); experiment: as above
From the text: as §1

[17] = target: ZAK (Homo sapiens, UniProt Q9NYL2); experiment: as above
From the text: as §1

[18] = target: TAOK3 (JIK) (Homo sapiens, UniProt Q9H2K8); experiment: as above
From the text: as §1

[19] = target: TLK2 (Homo sapiens, UniProt Q86UE8); experiment: as above; details: TLK2, 10 µM
From the text: as §1

[20] = target: STK38L (NDR2) (Homo sapiens, UniProt Q9Y2H1); experiment: as above
From the text: as §1

[21] = target: WNK1 (Homo sapiens, UniProt Q9H4A3); experiment: as above; details: WNK1, 10 µM
From the text: as §1

[22] = target: WNK2 (Homo sapiens, UniProt Q9Y3S1); experiment: as above; details: WNK2, 10 µM
From the text: as §1

[23] = target: STK33 (Homo sapiens, UniProt Q9BYT3); experiment: as above; details: STK33, 10 µM
From the text: as §1

[24] = target: STK32C (YANK3) (Homo sapiens, UniProt Q86UX6); experiment: as above
From the text: as §1

[25] = target: STK39 (STLK3) (Homo sapiens, UniProt Q9UEW8); experiment: as above
From the text: as §1

[26] = target: VRK2 (Homo sapiens, UniProt Q86Y07); experiment: as above; details: VRK2, 10 µM
From the text: as §1

[27] = target: TEK (TIE2) R849W (Homo sapiens, UniProt Q02763, R849W); experiment: as above
From the text: as §1

[28] = target: ULK2 (Homo sapiens, UniProt Q8IYT8); experiment: as above; details: ULK2, 10 µM
From the text: as §1

[29] = target: LRRK2 R1441C (Homo sapiens, UniProt Q5S007, R1441C); experiment: SelectScreen kinase profiling, Adapta; type: biochemical
[30] = test system: MON cells; experiment: cells; details: read-out: MTT: IC50 of the proliferation assay
[31] = target: AMPK (A2/B1/G2) (Homo sapiens, UniProt P54646); experiment: SelectScreen kinase profiling, ZLYTE; type: biochemical
[32] = target: IRAK1 (Homo sapiens, UniProt P51617); experiment: SelectScreen kinase profiling, Adapta; type: biochemical; details: IRAK1, 10 µM
[33] = target: PI4K2A (PI4K2 alpha) (Homo sapiens, UniProt Q9BTU6); experiment: SelectScreen kinase profiling, Adapta; type: biochemical
[34] = target: MAPK10 (JNK3) (Homo sapiens, UniProt P53779); experiment: SelectScreen kinase profiling, LanthaScreen binding
[35] = target: PIK3CA/PIK3R1 (p110 alpha/p85 alpha) (Homo sapiens, UniProt P42336); experiment: SelectScreen kinase profiling, Adapta; type: biochemical; details: PIK3CA/PIK3R1, 10 µM
[36] = target: MAP4K1 (HPK1) (Homo sapiens, UniProt Q92918); experiment: SelectScreen kinase profiling, LanthaScreen binding
[37] = target: KIT D816H (Homo sapiens, UniProt P10721, D816H); experiment: as above
[38] = target: EPHA7 (Homo sapiens, UniProt Q15375); experiment: as above; details: EPHA7, 10 µM
[39] = target: LRRK2 G2019S FL (Homo sapiens, UniProt Q5S007, G2019S); experiment: SelectScreen kinase profiling, Adapta; type: biochemical
[40] = target: PRKCA (PKC alpha) (Homo sapiens, UniProt P17252); experiment: SelectScreen kinase profiling, ZLYTE; type: biochemical

Sequence of WNK2 (Q9Y3S1 whole entry): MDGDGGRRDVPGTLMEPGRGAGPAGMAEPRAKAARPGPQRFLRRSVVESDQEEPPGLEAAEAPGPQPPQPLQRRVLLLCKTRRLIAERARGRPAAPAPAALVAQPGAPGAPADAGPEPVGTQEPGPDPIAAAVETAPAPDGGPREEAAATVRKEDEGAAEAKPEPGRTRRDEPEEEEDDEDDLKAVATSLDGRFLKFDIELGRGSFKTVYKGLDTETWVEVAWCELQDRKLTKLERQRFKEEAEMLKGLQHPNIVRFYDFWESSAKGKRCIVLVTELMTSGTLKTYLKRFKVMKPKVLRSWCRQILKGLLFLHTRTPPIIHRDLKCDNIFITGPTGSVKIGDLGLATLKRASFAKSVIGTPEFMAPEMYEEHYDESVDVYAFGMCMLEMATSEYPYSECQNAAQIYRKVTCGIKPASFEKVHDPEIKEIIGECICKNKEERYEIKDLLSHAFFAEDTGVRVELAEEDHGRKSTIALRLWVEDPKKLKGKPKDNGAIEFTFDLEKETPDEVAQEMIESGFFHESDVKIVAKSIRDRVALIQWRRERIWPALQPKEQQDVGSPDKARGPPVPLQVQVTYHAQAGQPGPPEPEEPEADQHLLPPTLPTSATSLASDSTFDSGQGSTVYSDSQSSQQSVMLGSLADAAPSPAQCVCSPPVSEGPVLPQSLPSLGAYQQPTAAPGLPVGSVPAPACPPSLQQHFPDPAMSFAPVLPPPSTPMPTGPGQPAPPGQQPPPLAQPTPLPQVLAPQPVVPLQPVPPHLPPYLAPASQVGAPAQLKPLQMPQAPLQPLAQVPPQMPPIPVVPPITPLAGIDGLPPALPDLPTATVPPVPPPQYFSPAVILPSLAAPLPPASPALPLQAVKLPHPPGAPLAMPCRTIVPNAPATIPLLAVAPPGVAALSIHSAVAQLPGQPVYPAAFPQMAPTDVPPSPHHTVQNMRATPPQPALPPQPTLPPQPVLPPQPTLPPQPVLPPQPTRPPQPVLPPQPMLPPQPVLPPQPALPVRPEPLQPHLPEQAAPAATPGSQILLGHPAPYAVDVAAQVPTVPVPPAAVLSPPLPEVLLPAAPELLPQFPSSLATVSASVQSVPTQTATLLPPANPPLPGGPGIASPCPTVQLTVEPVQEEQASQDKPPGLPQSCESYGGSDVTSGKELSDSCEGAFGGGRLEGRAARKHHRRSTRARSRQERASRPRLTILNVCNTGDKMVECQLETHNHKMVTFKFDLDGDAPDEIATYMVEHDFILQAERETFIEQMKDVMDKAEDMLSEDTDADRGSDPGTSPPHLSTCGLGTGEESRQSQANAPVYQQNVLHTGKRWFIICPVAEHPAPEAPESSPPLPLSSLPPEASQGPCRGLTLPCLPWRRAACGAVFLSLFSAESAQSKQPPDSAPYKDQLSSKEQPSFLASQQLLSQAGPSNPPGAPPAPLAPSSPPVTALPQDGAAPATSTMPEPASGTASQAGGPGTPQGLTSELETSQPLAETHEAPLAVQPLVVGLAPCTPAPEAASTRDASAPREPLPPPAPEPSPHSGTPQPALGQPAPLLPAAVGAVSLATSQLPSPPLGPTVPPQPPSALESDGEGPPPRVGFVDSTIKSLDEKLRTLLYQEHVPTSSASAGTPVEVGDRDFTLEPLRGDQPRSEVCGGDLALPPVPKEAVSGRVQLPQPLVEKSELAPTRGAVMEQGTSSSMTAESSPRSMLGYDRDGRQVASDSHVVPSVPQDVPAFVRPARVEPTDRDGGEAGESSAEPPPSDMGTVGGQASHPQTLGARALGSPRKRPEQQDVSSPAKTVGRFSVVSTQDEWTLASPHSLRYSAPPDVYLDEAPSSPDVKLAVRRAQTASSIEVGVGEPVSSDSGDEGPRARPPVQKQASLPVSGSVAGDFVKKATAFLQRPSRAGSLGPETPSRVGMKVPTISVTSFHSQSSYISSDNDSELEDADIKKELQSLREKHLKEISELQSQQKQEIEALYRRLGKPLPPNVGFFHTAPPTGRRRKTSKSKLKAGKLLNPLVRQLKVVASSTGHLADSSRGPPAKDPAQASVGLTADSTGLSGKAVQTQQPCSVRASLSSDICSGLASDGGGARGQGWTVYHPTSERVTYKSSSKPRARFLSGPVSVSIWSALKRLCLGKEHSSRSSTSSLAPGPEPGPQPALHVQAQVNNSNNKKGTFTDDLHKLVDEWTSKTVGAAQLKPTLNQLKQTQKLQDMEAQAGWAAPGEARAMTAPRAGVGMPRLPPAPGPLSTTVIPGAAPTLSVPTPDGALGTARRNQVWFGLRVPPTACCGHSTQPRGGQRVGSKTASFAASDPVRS
Sequence of MAPK10 (JNK3) (P53779 whole entry): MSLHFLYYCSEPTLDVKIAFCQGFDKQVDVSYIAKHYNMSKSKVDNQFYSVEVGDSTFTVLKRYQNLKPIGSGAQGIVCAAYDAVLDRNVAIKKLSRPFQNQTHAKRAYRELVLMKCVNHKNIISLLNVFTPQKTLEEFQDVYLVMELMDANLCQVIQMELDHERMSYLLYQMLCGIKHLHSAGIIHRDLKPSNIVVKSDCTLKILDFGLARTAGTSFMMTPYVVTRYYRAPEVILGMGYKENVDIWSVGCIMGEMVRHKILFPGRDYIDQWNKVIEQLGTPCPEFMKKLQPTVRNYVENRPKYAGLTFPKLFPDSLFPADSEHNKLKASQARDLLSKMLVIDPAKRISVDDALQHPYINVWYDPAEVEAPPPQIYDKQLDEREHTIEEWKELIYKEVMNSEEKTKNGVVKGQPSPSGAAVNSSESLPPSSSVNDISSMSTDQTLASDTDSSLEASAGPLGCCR
Sequence of RET S891A (P07949 29-1114 S891A): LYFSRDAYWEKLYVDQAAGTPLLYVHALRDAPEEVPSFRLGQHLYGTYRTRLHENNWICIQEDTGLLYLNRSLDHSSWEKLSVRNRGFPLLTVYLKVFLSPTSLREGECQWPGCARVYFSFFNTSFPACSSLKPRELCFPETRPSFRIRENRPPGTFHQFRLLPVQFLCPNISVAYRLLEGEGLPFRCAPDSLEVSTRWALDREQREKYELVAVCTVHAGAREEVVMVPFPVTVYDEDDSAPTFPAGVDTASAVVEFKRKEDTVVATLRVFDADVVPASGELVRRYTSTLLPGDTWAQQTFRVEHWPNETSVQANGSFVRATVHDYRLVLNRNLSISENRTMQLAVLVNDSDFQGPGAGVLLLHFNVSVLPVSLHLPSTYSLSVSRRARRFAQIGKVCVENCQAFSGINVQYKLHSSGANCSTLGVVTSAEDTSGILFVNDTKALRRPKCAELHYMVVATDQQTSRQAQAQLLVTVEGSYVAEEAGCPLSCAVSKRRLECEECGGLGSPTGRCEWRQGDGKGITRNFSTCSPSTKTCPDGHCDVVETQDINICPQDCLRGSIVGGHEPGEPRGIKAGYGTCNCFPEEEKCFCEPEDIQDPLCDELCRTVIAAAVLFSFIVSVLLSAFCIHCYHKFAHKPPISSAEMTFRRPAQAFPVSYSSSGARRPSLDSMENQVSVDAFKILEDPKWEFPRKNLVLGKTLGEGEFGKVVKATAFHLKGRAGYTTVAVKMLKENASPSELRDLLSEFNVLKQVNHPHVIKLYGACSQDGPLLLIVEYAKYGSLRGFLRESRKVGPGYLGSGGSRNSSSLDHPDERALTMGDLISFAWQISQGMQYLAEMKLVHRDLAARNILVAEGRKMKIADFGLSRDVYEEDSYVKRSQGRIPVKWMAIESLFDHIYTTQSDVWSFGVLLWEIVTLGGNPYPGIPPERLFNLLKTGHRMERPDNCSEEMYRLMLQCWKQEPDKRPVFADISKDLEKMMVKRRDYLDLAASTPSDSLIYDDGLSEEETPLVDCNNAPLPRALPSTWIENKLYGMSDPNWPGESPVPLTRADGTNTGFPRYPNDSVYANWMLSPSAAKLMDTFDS
Sequence of ULK2 (Q8IYT8 whole entry): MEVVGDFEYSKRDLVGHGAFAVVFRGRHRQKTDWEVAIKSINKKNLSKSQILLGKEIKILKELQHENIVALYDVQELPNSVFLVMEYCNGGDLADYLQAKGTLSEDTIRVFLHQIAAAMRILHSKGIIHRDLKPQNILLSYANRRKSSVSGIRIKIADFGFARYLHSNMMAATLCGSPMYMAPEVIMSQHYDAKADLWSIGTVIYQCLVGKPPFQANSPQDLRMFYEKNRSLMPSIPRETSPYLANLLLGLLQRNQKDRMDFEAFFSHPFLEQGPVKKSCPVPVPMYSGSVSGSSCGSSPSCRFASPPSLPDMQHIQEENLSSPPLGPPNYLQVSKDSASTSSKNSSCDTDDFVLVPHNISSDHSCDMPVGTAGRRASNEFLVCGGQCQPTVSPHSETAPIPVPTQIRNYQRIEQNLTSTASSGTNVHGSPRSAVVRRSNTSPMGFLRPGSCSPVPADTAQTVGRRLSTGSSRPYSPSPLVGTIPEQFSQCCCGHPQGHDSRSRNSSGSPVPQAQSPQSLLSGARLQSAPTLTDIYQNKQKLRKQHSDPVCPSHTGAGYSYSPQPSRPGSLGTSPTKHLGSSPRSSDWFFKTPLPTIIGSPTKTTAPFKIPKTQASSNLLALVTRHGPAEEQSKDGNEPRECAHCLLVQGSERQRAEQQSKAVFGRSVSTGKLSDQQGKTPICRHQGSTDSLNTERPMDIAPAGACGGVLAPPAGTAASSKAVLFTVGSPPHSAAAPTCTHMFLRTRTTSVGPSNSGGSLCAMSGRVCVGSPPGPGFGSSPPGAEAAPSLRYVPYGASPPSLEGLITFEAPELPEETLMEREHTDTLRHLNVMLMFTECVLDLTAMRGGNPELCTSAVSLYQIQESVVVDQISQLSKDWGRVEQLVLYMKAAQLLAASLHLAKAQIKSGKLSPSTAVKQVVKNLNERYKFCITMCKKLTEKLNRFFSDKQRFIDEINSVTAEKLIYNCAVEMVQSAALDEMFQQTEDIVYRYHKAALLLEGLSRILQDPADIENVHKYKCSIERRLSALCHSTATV

O=C(c1ccc(/C=C/c2n[nH]c3ccccc23)cc1)N1CCNCC1 [KW-2449]
inhibition at 10 µM [1]: 97% | inhibition at 10 µM [2]: 77% | IC50 [3]: > 10 µM | inhibition at 10 µM [4]: 74% | inhibition at 10 µM [5]: 94% | inhibition at 10 µM [6]: 81% | inhibition at 10 µM [7]: 92% | inhibition at 10 µM [8]: 90% | inhibition at 10 µM [9]: 8% | inhibition at 10 µM [10]: 10% | inhibition at 10 µM [11]: 99% | inhibition at 10 µM [12]: 77% | inhibition at 10 µM [13]: -9% | inhibition at 10 µM [14]: 54% | inhibition at 10 µM [15]: 7% | inhibition at 10 µM [16]: 71% | inhibition at 10 µM [17]: 77% | inhibition at 10 µM [18]: 25% | inhibition at 10 µM [19]: 33% | inhibition at 10 µM [20]: 59% | inhibition at 10 µM [21]: 2% | inhibition at 10 µM [22]: 1% | inhibition at 10 µM [23]: 81% | inhibition at 10 µM [24]: 62% | inhibition at 10 µM [25]: 38% | inhibition at 10 µM [26]: 32% | inhibition at 10 µM [27]: -5% | inhibition at 10 µM [28]: 56% | inhibition at 10 µM [29]: 100% | IC50 [30]: 2.45 µM | inhibition at 10 µM [31]: 97% | inhibition at 10 µM [32]: 99% | inhibition at 10 µM [33]: 4% | inhibition at 10 µM [34]: 88% | inhibition at 10 µM [35]: 11% | inhibition at 10 µM [36]: 76% | inhibition at 10 µM [37]: 42% | inhibition at 10 µM [38]: 66% | inhibition at 10 µM [39]: 100% | inhibition at 10 µM [40]: 61%
